Earlier results as cited in patent publication US20230192588A1, “CANNABIDIOLIC ACID (CBDA) DERIVATIVES AND USES THEREOF” (YISSUM RESEARCH DEVELOPMENT COMPANY OF THE HEBREW …, priority 2020, published 2023).

Experiments:
[1] = tested on: rats; settings: compared to CBDA, 5-HT1A receptor-dependent manner
[2] = tested on: rat models; settings: oral ingestion of a low dose (1 mg/kg); two rat models
[3] = tested on: rats; settings: compared to CBDA, 5-HT1A receptor-dependent manner; remark: listed apart in the source

For C=C(C)[C@@H]1CCC(C)=C[C@H]1c1c(O)cc(CCCCC)c(C(=O)OC)c1O [HU-580, cannabidiolic acid methyl ester], the “potency in suppressing signs of stress-induced anxiety” value [1] is listed as “greater potency than CBDA”, the anti-depressant effect [2] is listed as “potent anti-depressant effect” and the “potency in suppressing signs of both acute and anticipatory nausea” value [3] is listed as “greater potency than CBDA”.
